PubChem BioAssay (NCI)
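Compound exposure: 48 hours, 5 concentrations, 96-well plates. GI50 is the concentration that inhibits growth by half. TGI is the concentration that stops growth completely.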

Legend:
Assay in all cases: inhibition of tumour cell growth, NCI panel, 48 h
[1] = system: 786-0 renal
[2] = system: EKVX NSCLC
[3] = system: HCT-116 colon
[4] = system: OVCAR-3 ovarian
[5] = system: SF-539 CNS
[6] = system: SK-MEL-5 melanoma
[7] = system: SN12C renal
[8] = system: COLO 205 colon
[9] = system: HS 578T breast
[10] = system: MDA-MB-435

| Structure (SMILES) | TGI [1] [µM] | TGI [2] [µM] | TGI [3] [µM] | TGI [4] [µM] | TGI [5] [µM] | TGI [6] [µM] | TGI [7] [µM] | GI50 [1] [µM] | GI50 [8] [µM] | TGI [8] [µM] | GI50 [2] [µM] | GI50 [3] [µM] | GI50 [9] [µM] | TGI [9] [µM] | GI50 [10] [µM] | TGI [10] [µM] | GI50 [4] [µM] | GI50 [5] [µM] | GI50 [6] [µM] | GI50 [7] [µM] |
| --- | --- | --- | --- | --- | --- | --- | --- | --- | --- | --- | --- | --- | --- | --- | --- | --- | --- | --- | --- | --- |
| CN(c1ccccc1)c1c(Cl)c(=O)oc2c1ccc1occc12 | > 100 | > 100 | > 100 | > 100 | > 100 | > 100 | > 100 | – | – | – | – | – | – | – | – | – | – | – | – | – |
| COc1cc2nc3cc([N+](=O)[O-])ccc3c(NCCNCC(C)(C)O)c2cc1OC | 4.04 | 5.7 | 1.54 | 1.3 | 2.12 | – | – | 1.51 | 0.37 | 1.54 | 1.72 | 0.368 | 1.75 | 6.15 | 0.6 | 1.93 | 0.373 | 0.566 | – | – |
| C=CCc1cc(OC)c2c(c1)C(OC)CC(c1ccc(OC)c(OC)c1)O2 (stereo not drawn) | > 100 | > 100 | > 100 | > 100 | > 100 | > 100 | > 100 | – | – | > 100 | – | – | – | – | – | – | – | – | – | – |
| CC1(C)C(=O)C(C)(C)C1=S | > 100 | > 100 | > 100 | > 100 | – | > 100 | > 100 | – | – | > 100 | – | – | – | – | – | – | – | – | – | – |
| CCOC(=O)c1cnc2c(C)cccc2c1Nc1ccc(C(C)=O)cc1 | 42.3 | – | > 100 | > 100 | > 100 | 19.7 | > 100 | 16.9 | 17.5 | 43.4 | – | 14.2 | 15.4 | 58.4 | > 100 | > 100 | 26.1 | 34.3 | 3.75 | 24.9 |
| CCCCCCC[CH2][Sn]1([CH2]CCCCCCC)[O]C(=O)c2cccnc2[O]1 | > 100 | > 100 | > 100 | > 100 | > 100 | > 100 | > 100 | > 100 | > 100 | > 100 | > 100 | > 100 | – | – | – | – | > 100 | > 100 | > 100 | > 100 |
| CN(C)C(=S)SCC(=O)Nc1ccccc1 | > 100 | > 100 | > 100 | > 100 | – | > 100 | > 100 | – | – | > 100 | – | – | – | > 100 | – | > 100 | – | – | – | – |
| O=C(Nc1nc2c(ncn2C2OC(CO)C(O)C2O)c(=O)[nH]1)c1ccccc1 (stereo not drawn) | > 100 | > 100 | > 100 | > 100 | > 100 | > 100 | > 100 | – | – | > 100 | – | – | – | – | – | – | – | – | – | – |
| CCSc1c2ccccc2c(-c2nc(F)nc(F)n2)n1CCc1ccccc1 | > 100 | > 100 | > 100 | > 100 | > 100 | – | > 100 | – | – | > 100 | – | – | – | – | – | – | – | – | – | – |
| COc1cc(CCc2ccc(N)cc2)cc(OC)c1OC | > 100 | > 100 | > 100 | > 100 | > 100 | > 89.6 | > 100 | – | – | 53.1 | – | – | – | – | – | – | – | – | – | – |
| Cn1nc(-c2ccccc2)c2c(/C=C/c3ccccc3)onc2c1=O | > 100 | > 100 | > 100 | > 100 | > 100 | > 100 | > 100 | – | – | > 100 | – | – | – | – | – | – | – | – | – | – |
| CC(SC(=O)Nc1ccc(N=Nc2ccccc2)cc1)C(=O)O (stereo not drawn) | > 100 | > 100 | > 100 | > 100 | > 100 | – | > 100 | – | – | > 100 | – | – | – | – | – | – | – | – | – | – |
| Brc1ccc2ns[s+]c2c1 | > 100 | > 100 | > 100 | > 100 | 65.3 | > 46.7 | > 100 | – | – | > 41.9 | – | – | – | – | – | – | – | – | – | – |
| O=[N+]([O-])c1cccc(C2CC(c3ccccc3)=Nc3ccccc3S2)c1 (stereo not drawn) | 31.6 | – | 9 | 26.1 | 31.3 | 29.6 | 26.8 | 17.3 | 19.2 | 41.7 | – | 2.94 | 20 | > 100 | 15.7 | 37.7 | 13.3 | 17.2 | 15.9 | 13.4 |
| N#C/C(=C/NC(=S)c1ccncc1)C(N)=O | > 100 | > 100 | > 100 | > 100 | > 100 | > 100 | > 100 | – | – | > 100 | – | – | – | – | – | > 100 | – | – | – | – |
| CC(=O)O[C@H]1CC[C@@]2(C)C(=CC[C@@H]3C2CC[C@]2(C)Nc4nc5ccccc5cc4CC32)C1 (stereo partly drawn) | 10.7 | 18.8 | 3.8 | 8.53 | 12 | 15.4 | 20.1 | – | – | 20.9 | – | – | – | – | – | – | – | – | – | – |
| Nc1c(Cl)ncnc1NCCCNc1ncnc(Cl)c1N | > 100 | > 100 | > 100 | > 100 | > 100 | > 100 | > 100 | – | – | > 100 | – | – | – | – | – | – | – | – | – | – |
| NC(=O)NC1C(C(N)=O)N(Cc2ccccc2)C(=O)N1Cc1ccccc1 (stereo not drawn) | > 100 | > 100 | > 100 | > 100 | > 100 | > 100 | – | – | – | > 100 | – | – | – | – | – | – | – | – | – | – |
| COc1cccc(/C=C2\COc3ccc(-c4ccccc4)cc3C2=O)c1 | 6.45 | > 100 | 3.47 | – | 4.12 | 3.55 | 7.49 | 2.63 | 2.18 | 5.06 | 4.8 | 1.68 | 2.76 | 6.61 | 3.21 | > 100 | – | 2.05 | 1.67 | 2.33 |
| Cn1cc(C2=C(c3cn(CCCCCSC(=N)N)c4ccccc34)C(=O)NC2=O)c2ccccc21 | 7 | – | 4.53 | 6.55 | 6.77 | 6.67 | 6.01 | 3.16 | 1.24 | 4.68 | – | 1.08 | 2.24 | 11.1 | 1.06 | 4.07 | 3.22 | 3.51 | 3.28 | 2.67 |
